# Results taken from patent publication US20120309734A1, “COMBRETASTATIN DERIVATIVES AND USES THEREFOR” (priority 2009, published 2012).
# Read-outs that look alike come from different tables or passages of the source.
# Key:
# [1] = test system: normal mouse mammary epithelial cells; experiment: Viability of normal mammary epithelial cells; type: cell-based
# Experimental: The maximum toxicity elicited by these drugs on normal cells at a concentration of 10 nM was only 8% (see Table 4).
# [2] = molecular target: T1, purified human liver cathepsin-L (Homo sapiens, UniProt P07711); experiment: Fluorogenic cathepsin-L activity kit; type: biochemical; conditions: FIG. 2
# T1 construct: uses purified human liver cathepsin-L as the source of the cathepsin; purchased calbiochem; host or cells: human liver
# T1 sequence (P07711 114-333): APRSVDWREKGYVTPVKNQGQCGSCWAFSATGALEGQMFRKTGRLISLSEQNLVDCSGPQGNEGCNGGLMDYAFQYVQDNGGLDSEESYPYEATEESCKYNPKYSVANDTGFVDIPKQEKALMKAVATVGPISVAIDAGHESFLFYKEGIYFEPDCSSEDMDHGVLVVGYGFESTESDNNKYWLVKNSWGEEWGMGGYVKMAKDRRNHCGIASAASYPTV
# Experimental: Cathepsin L activity was measured using the fluorogenic cathepsin-L activity kit from calbiochem which uses purified human liver cathepsin-L as the source of the cathepsin. […] Values represent the mean+/−range of two separate experiments each carried out in duplicate.
# [3] = test system: normal mouse mammary epithelial cells; experiment: Viability of normal mammary epithelial cells; type: cell-based; conditions: 72 hr treatment
# [4] = test system: MCF-7 breast cancer cell line; experiment: Antiproliferation study, MTT cell viability assay; type: cell-based; conditions: Homo sapiens
# Experimental: All assays were performed in triplicate for the determination of mean values reported. Compounds were assayed as the free bases isolated from reaction. The human breast tumour cell line MCF-7 was cultured in Eagles minimum essential medium in a […] atmosphere with 10% fetal bovine serum, 2 mM L-glutamine and 100 μg/mL penicillin/streptomycin. The medium was supplemented with 1% non-essential amino acids. MDA-MB-231 cells were maintained in Dulbecco's Modified Eagle's medium (DMEM), supplemented with 10% (v/v) Fetal bovine serum, 2 mM L-glutamine and 100 μg/mL penicillin/streptomycin (complete medium). Cells were trypsinised and seeded at a density of 2.5×10^4 cells/ml in a 96-well plate and incubated at 37° C., […] atmosphere for 24 h. […] Control wells contained the equivalent volume of the vehicle ethanol (1% v/v). The culture medium was then removed and the cells washed with 100 μL phosphate buffered saline (PBS) and 50 μL MTT added, to reach a final concentration of 1 mg/mL MTT added. Cells were incubated for 2 h in darkness at 37° C. At this point solubilization was begun through the addition of 200 μL DMSO and the cells maintained at room temperature in darkness for 20 min to ensure thorough colour diffusion before reading the absorbance. The absorbance value of control cells (no added compound) was set to 100% cell viability and from this graphs of absorbance versus cell density per well were prepared to assess cell viability and from these, graphs of percentage cell viability versus concentration of subject compound added were drawn.
# [5] = test system: human chronic myeloid leukaemia K562 cells; experiment: MTT cell viability assay; type: cell-based; conditions: read-out: Inhibition of cell viability (IC50 value, nM) K562
# [6] = test system: human promyelocytic leukaemia HL-60 cells; experiment: MTT cell viability assay; type: cell-based; conditions: read-out: Inhibition of cell viability (IC50 value, nM) HL-60
# [7] = test system: purified bovine brain tubulin; experiment: Tubulin polymerization assay (turbidity); type: biochemical
# Experimental: The effect of compounds on the assembly of purified bovine brain tubulin was determined spectrophotometrically by monitoring the change in turbidity. This assay used a 96-well plate format with 300 μg of >99% purified bovine brain tubulin in each well. […] 10 μl of 10× strength of each compound tested was pipetted into a half area 96-well plate prewarmed to 37° C. A 100 μl volume of tubulin was then pipetted into the prewarmed plate. Samples were mixed well and tubulin assembly was monitored at an A340 nm at 30 second intervals for 60 minutes at 37° C. in a Spectromax 340PC spectrophotometer (Molecular Devices).
# MDA-MB-231 cells [8] = experiment: Cell cycle analysis by flow cytometry (PI); type: cell-based, human
# Experimental: The MDA-MB-231 cells were seeded at a density of 18×10^4 cells/mL in 5 mL of medium (900,000 cells per flask). After 24 hours the control was treated with 50 μL of ethanol (1% v/v) and selected compound dosed at range 10 nM-10 μM (final concentration, 1% v/v). They were incubated for 72 hours. Following incubation, the cells were removed from the bottom of the flask by scraping and the medium placed in a 20 mL sterilin. They were centrifuged for 10 minutes at 600×g. The supernatant was decanted and the pellet resuspended in 1 mL of ice-cold PBS; cells were again centrifuged for 10 minutes at 600×g. The supernatant was decanted and the pellet resuspended in 200 μL of ice-cold phosphate buffer saline (PBS). Subsequently ice-cold 70% ethanol (2 mL) was slowly added to the tube as it was gently vortexed. The cells were kept at −20° C. for at least one hour. After the fixation 5 μL of FBS was added to the samples. The cells were harvested by centrifugation at 600×g for 10 mins. The ethanol was carefully removed and the pellet resuspended in 400 μL of PBS and transferred to FACS microtubes. A 25 μL aliquot of RNase A (1 mg/mL) and 75 μL of propidium iodide (PI) 1 mg/mL, a DNA binding fluorescent dye, was added to each tube. The samples were wrapped in aluminium foil and incubated for a minimum of 30 min at 37° C. The samples were read at 488 nm using FACscalibur flow cytometer from Becton Dickinson. The FACS data for 10,000 cells was analysed using the Macintosh-based application Cellquest and the data was stored as frequency histograms.
# (§1) MDA-MB-231 cells were treated with vehicle (1% (v/v) ethanol) or 10 nM, 100 nM, 1 μM and 10 μM (final concentrations) of 25. Cells were harvested after 24, 48 or 72 hours and analysed for DNA content by flow cytometry.
# MDA-MB-231 cells [9] = experiment: Antiproliferation study, MTT cell viability assay; type: cell-based; conditions: Homo sapiens, read-out: antiproliferative effects, MDA-MB-231
# Experimental: All assays were performed in triplicate for the determination of mean values reported. Compounds were assayed as the free bases isolated from reaction. The human breast tumour cell line MCF-7 was cultured in Eagles minimum essential medium in a […] atmosphere with 10% fetal bovine serum, 2 mM L-glutamine and 100 μg/mL penicillin/streptomycin. The medium was supplemented with 1% non-essential amino acids. MDA-MB-231 cells were maintained in Dulbecco's Modified Eagle's medium (DMEM), supplemented with 10% (v/v) Fetal bovine serum, 2 mM L-glutamine and 100 μg/mL penicillin/streptomycin (complete medium). […] At this point solubilization was begun through the addition of 200 μL DMSO and the cells maintained at room temperature in darkness for 20 min to ensure thorough colour diffusion before reading the absorbance. The absorbance value of control cells (no added compound) was set to 100% cell viability and from this graphs of absorbance versus cell density per well were prepared to assess cell viability and from these, graphs of percentage cell viability versus concentration of subject compound added were drawn.
# as §1
# [10] = MCF7, 72 h, antiproliferative activity, MTT, 72 h, read-out: IC50 (μM) MCF-7 cell line
smiles,measurement,setting,value
"COc1ccc(C2C(c3ccc(O)cc3)C(=O)N2c2cc(OC)c(OC)c(OC)c2)cc1O (stereo not drawn) [Compound 14, 4-(3-Hydroxy-4-methoxy-phenyl)-3-(4-hydroxy-phenyl)-1-(3,4,5-trimethoxy-phenyl)-azetidin-2-one]",Percent viability of normal mammary epithelial cells compared to control,"[1]; 10 nM, 72 hr treatment",90%
same,effects on normal mammary epithelial cells,[1]; up to 10 μM,minimal effects
same,inhibition of cathepsin-L activity,[2],inhibited cathepsin-L in the nanomolar range
same,Percent viability of normal mammary epithelial cells compared to control,[3]; 1 nM,93.8%
same,Percent viability of normal mammary epithelial cells compared to control,[3]; 100 nM,73.2%
same,Percent viability of normal mammary epithelial cells compared to control,[3]; 1 μM,75.2%
same,Percent viability of normal mammary epithelial cells compared to control,[3]; 10 μM,74.8%
same,IC50,[4]; [10],0.0008 µM
same,IC50,"[4]; MCF7, MTT cell viability assay, read-out: Inhibition of cell viability (IC50 value, nM) MCF-7",0.0008 to 0.0031 µM
same,IC50,[5],0.9 nM
same,IC50,[6],0.4 nM
same,melting point,,152 °C
COc1ccc(C2CC(=O)N2c2cc(OC)c(OC)c(OC)c2)cc1O (stereo not drawn) [Compound 25],X-fold inhibition of tubulin polymerisation (Vmax ± SEM),[7]; 1 μM,1.1 ± 0.2 fold
same,X-fold inhibition of tubulin polymerisation (Vmax ± SEM),[7]; 10 μM,10.2 ± 2.3 fold
same,G1 (%),"MDA-MB-231 cells [8]; 10 nM, 24 hours",48.33 ± 4.18%
same,G2/M (%),"MDA-MB-231 cells [8]; 10 nM, 24 hours",25.61 ± 0.98%
same,M5 (%),"MDA-MB-231 cells [8]; 10 nM, 24 hours",2.84 ± 0.59%
same,S (%),"MDA-MB-231 cells [8]; 10 nM, 24 hours",12.55 ± 2.54%
same,Sub-G1 (%),"MDA-MB-231 cells [8]; 10 nM, 24 hours",3.72 ± 1.97%
same,G1 (%),"MDA-MB-231 cells [8]; 10 nM, 48 hours",45.25 ± 7.37%
same,G2/M (%),"MDA-MB-231 cells [8]; 10 nM, 48 hours",23.71 ± 7.81%
same,M5 (%),"MDA-MB-231 cells [8]; 10 nM, 48 hours",6.10 ± 0.62%
same,S (%),"MDA-MB-231 cells [8]; 10 nM, 48 hours",13.36 ± 2.58%
same,Sub-G1 (%),"MDA-MB-231 cells [8]; 10 nM, 48 hours",11.57 ± 3.06%
same,G1 (%),"MDA-MB-231 cells [8]; 10 nM, 72 hours",48.24 ± 2.79%
same,G2/M (%),"MDA-MB-231 cells [8]; 10 nM, 72 hours",17.68 ± 4.58%
same,M5 (%),"MDA-MB-231 cells [8]; 10 nM, 72 hours",3.55 ± 1.57%
same,S (%),"MDA-MB-231 cells [8]; 10 nM, 72 hours",9.08 ± 2.32%
same,Sub-G1 (%),"MDA-MB-231 cells [8]; 10 nM, 72 hours",15.25 ± 2.03%
same,G1 (%),"MDA-MB-231 cells [8]; 100 nM, 24 hours",18.95 ± 6.60%
same,G2/M (%),"MDA-MB-231 cells [8]; 100 nM, 24 hours",59.43 ± 3.13%
same,M5 (%),"MDA-MB-231 cells [8]; 100 nM, 24 hours",4.87 ± 4.39%
same,S (%),"MDA-MB-231 cells [8]; 100 nM, 24 hours",6.05 ± 0.38%
same,Sub-G1 (%),"MDA-MB-231 cells [8]; 100 nM, 24 hours",4.88 ± 0.85%
same,G1 (%),"MDA-MB-231 cells [8]; 100 nM, 48 hours",10.76 ± 0.34%
same,G2/M (%),"MDA-MB-231 cells [8]; 100 nM, 48 hours",36.42 ± 3.42%
same,M5 (%),"MDA-MB-231 cells [8]; 100 nM, 48 hours",4.61 ± 0.86%
same,S (%),"MDA-MB-231 cells [8]; 100 nM, 48 hours",8.90 ± 0.85%
same,Sub-G1 (%),"MDA-MB-231 cells [8]; 100 nM, 48 hours",37.50 ± 0.71%
same,G1 (%),"MDA-MB-231 cells [8]; 100 nM, 72 hours",13.90 ± 3.62%
same,G2/M (%),"MDA-MB-231 cells [8]; 100 nM, 72 hours",12.62 ± 9.22%
same,M5 (%),"MDA-MB-231 cells [8]; 100 nM, 72 hours",2.99 ± 1.89%
same,S (%),"MDA-MB-231 cells [8]; 100 nM, 72 hours",5.34 ± 4.32%
same,Sub-G1 (%),"MDA-MB-231 cells [8]; 100 nM, 72 hours",63.10 ± 20.06%
same,G1 (%),"MDA-MB-231 cells [8]; 1 μM, 24 hours",19.22 ± 6.19%
same,G2/M (%),"MDA-MB-231 cells [8]; 1 μM, 24 hours",63.16 ± 4.86%
same,M5 (%),"MDA-MB-231 cells [8]; 1 μM, 24 hours",4.31 ± 3.17%
same,S (%),"MDA-MB-231 cells [8]; 1 μM, 24 hours",6.01 ± 2.90%
same,Sub-G1 (%),"MDA-MB-231 cells [8]; 1 μM, 24 hours",7.08 ± 4.20%
same,G1 (%),"MDA-MB-231 cells [8]; 1 μM, 72 hours",14.29 ± 2.20%
same,G2/M (%),"MDA-MB-231 cells [8]; 1 μM, 72 hours",21.24 ± 12.05%
same,M5 (%),"MDA-MB-231 cells [8]; 1 μM, 72 hours",5.97 ± 4.71%
same,S (%),"MDA-MB-231 cells [8]; 1 μM, 72 hours",7.76 ± 0.58%
same,Sub-G1 (%),"MDA-MB-231 cells [8]; 1 μM, 72 hours",50.53 ± 14.78%
same,G1 (%),"MDA-MB-231 cells [8]; 10 μM, 24 hours",29.30 ± 5.95%
same,G2/M (%),"MDA-MB-231 cells [8]; 10 μM, 24 hours",55.36 ± 1.49%
same,M5 (%),"MDA-MB-231 cells [8]; 10 μM, 24 hours",3.85 ± 3.83%
same,S (%),"MDA-MB-231 cells [8]; 10 μM, 24 hours",3.72 ± 0.71%
same,Sub-G1 (%),"MDA-MB-231 cells [8]; 10 μM, 24 hours",3.18 ± 0.25%
same,G1 (%),"MDA-MB-231 cells [8]; 10 μM, 48 hours",14.44 ± 2.28%
same,G2/M (%),"MDA-MB-231 cells [8]; 10 μM, 48 hours",27.25 ± 4.45%
same,M5 (%),"MDA-MB-231 cells [8]; 10 μM, 48 hours",2.28 ± 0.06%
same,S (%),"MDA-MB-231 cells [8]; 10 μM, 48 hours",4.47 ± 0.06%
same,Sub-G1 (%),"MDA-MB-231 cells [8]; 10 μM, 48 hours",51.27 ± 6.31%
same,G1 (%),"MDA-MB-231 cells [8]; 10 μM, 72 hours",17.14 ± 3.31%
same,G2/M (%),"MDA-MB-231 cells [8]; 10 μM, 72 hours",21.81 ± 12.40%
same,M5 (%),"MDA-MB-231 cells [8]; 10 μM, 72 hours",3.38 ± 2.84%
same,S (%),"MDA-MB-231 cells [8]; 10 μM, 72 hours",9.66 ± 1.84%
same,Sub-G1 (%),"MDA-MB-231 cells [8]; 10 μM, 72 hours",46.49 ± 17.49%
same,IC50,MDA-MB-231 cells [9],54 nM
same,IC50,[4]; [10],0.017 µM
same,IC50,"[4]; MCF7, read-out: antiproliferative effects, MCF-7",0.017 µM
